Experimental data from patent US8586612B2, “Piperidinesulfonylureas and -thioureas, their preparation, their use and pharmaceutical compositions comprising them” (Sanofi-Aventis Deutschland GmbH, priority 2004, dated 2013).

Assays:
[1] = tested on: guinea pig papillary muscle; experiment: Effect on the action potential duration (APD90) on the guinea pig papillary muscle under hypoxia; conditions: test substance 2 μmol/l in bath, 60 minutes after addition; 100% = APD90 under hypoxia before substance, 0% = normoxic APD90
Excerpt: 1) Effect on the Action Potential Duration on the Guinea Pig Papillary Muscle
ATP deficiency states like those observed in the cardiomyocyte during an ischemia lead to a shortening of the action potential duration. They are regarded as one of the causes of so-called reentry arrhythmias, which can cause sudden cardiac death. The opening of ATP-sensitive potassium channels through the lowering of the ATP level is regarded as the cause thereof (ATP=adenosine triphosphate). For measuring the action potential on the guinea pig papillary muscle, a standard microelectrode technique was employed.
Guinea pigs of both sexes were sacrificed by a blow to the head, the heart was removed, and the papillary muscles were dissected out and suspended in an organ bath. The organ bath was rinsed with Ringer's solution (136 mmol/l NaCl, 3.3 mmol/l KCl, 2.5 mmol/l CaCl2, 1.2 mmol/l KH2PO4, 1.1 mmol/l MgSO4, 5.0 mmol/l glucose, 10.0 mmol/l 1-(2-hydroxyethyl)piperazine-4-(2-ethanesulfonic acid) (HEPES), pH adjusted to 7.4 with NaOH) and aerated with 100% oxygen at a temperature of 37° C. The muscle was stimulated via an electrode with square-wave pulses of 1 V and 1 ms duration and a frequency of 1 Hz. The action potential was derived through a glass microelectrode which is inserted intracellularly and filled with 3 mol/l KCl solution, and was recorded. The action potential was amplified using an amplifier from Hugo Sachs (March-Hugstetten, Germany) and stored and evaluated by a computer. The duration of the action potential was determined at a degree of repolarization of 90% (APD90). The shortening of the action potential was induced after an equilibration time of 30 minutes by rinsing the papillary muscle with a hypoxic solution. For this, the glucose was removed, the HEPES buffer replaced by PIPES buffer (piperazine-1,4-bis(2-ethanesulfonic acid)), the pH adjusted to 6.5 and aeration was carried out with 100% nitrogen. This led after a period of 60 minutes to a marked shortening of the APD90. After this time, the test substance was added in the form of a stock solution in propanediol, so that the concentration of the substance in the bath solution was 2 μmol/l. After a further 60 minutes, the re-prolongation of the action potential again recorded. The table below indicates the overall shortening, resulting after hypoxia and addition of test substance, of the APD90 value in percent, i.e. the percentage shortening of the APD90 still remaining after addition of the test substance under hypoxia, where 100% corresponds to the APD90 value under hypoxic conditions before addition of the test substance and 0% corresponds to the APD90 value under normoxic conditions at the start of the experiment.

[2] = biological target: hSUR1/hKir6.2 (Homo sapiens, UniProt Q09428); experiment: Effect on membrane potential of hSUR1/hKir6.2-transfected CHO cells (hypoglycemic effect), DiBAC4 fluorescence, FLIPR; type: cell-based; conditions: CHO cells activated with diaxozide, averages of at least 4 experiments
Excerpt: 2) Effect on hSUR1/hKir6.2-Transfected CHO Cells (Hypoglycemic Effect)
The target organ of these compounds is the β cell of the pancreas, where they block ATP-sensitive potassium channels and bring about, through influencing the electric potential of the cell membrane, a release of the blood sugar-lowering hormone insulin. […] The extent of this depolarization of the cell membrane caused by the compounds according to the invention was investigated on CHO cells which were transfected with the cloned components of human pancreatic ATP-sensitive potassium channels, hSUR1 and hKir6.2, and were activated by pretreatment with diaxozide, an opener of ATP-sensitive potassium channels. The strength of action of a compound on the membrane potential of these transfected and activated CHO cells is a measure of the blood sugar-lowering potential of this compound.
On the day of the measurement, the microtiter plates were washed three times with PBS (physiological buffer solution). 90 μl remained in each well at the last washing step. The cells were then loaded with the fluorescent dye DiBAC4 (Molecular Probes, Portland, Oreg., USA) by adding 90 μl of a 10 micromolar solution of DIBAC4 in PBS and 90 μl of a 400-micromolar solution of diaxozide in PBS to each well. After an incubation time of 30 minutes at 37° C., the microtiter plates were then transferred into a Fluorescent Microtiter Plate Reader (FLIPR; Molecular Devices, Sunnyvale, Calif., USA). The cells were excited using an argon laser (Innova 90; Coherent, Santa Clara, Calif., USA) at a wavelength of 488 nm, and the fluorescence emission was measured using a CCD camera. Measurement of the membrane potential began after 4 minutes by adding 20 μl of a solution of the test substance or of the control solution to each well, measuring the resulting fluorescence emission every 20 seconds over a period of 20 minutes. The data listed below are averages of at least 4 experiments.

[3] = tested on: guinea pig heart; experiment: Effect on coronary flow under hypoxic conditions in the isolated perfused Langendorff guinea pig heart; conditions: 1 μM in perfusate, added 10 minutes before hypoxia; averages of 3 hearts
Excerpt: 3) Effect on Coronary Flow Under Hypoxic Conditions in the Guinea Pig Heart
It is known that an oxygen deficiency in coronary vessels leads to a reflectory dilatation of the vessels in order to compensate the oxygen deficiency. The vascular KATP channel (SUR2B/Kir6.2) plays an important part in this. Its opening leads to hyperpolarization of the cell membrane of the smooth muscle cell and consequently to a reduced calcium influx, resulting in a dilatation of the vessel. Blockade of the vascular KATP channel inhibits the widening of the vessel and thus adjustment of the coronary flow under hypoxic conditions. The test model used for determining the coronary flow was an isolated perfused Langendorff heart of a guinea pig.
Guinea pigs of both sexes were sacrificed by a blow to the head. The heart was quickly removed, and the aorta was canulated. After the canulation, the heart was suspended in the perfusion solution in the Langendorff apparatus, and a latex balloon was inserted into the left ventricle. The coronary flow was recorded using a flow transducer, type E, from Hellige (Freiburg, Germany). The heart was perfused with a constant pressure of 55 mm Hg. Hypoxia was induced by changing the aeration from 95% oxygen/5% carbon dioxide (=normoxia) to 20% oxygen/75% nitrogen/5% carbon dioxide. […]

hSUR1/hKir6.2, sequence (Q09428 whole entry): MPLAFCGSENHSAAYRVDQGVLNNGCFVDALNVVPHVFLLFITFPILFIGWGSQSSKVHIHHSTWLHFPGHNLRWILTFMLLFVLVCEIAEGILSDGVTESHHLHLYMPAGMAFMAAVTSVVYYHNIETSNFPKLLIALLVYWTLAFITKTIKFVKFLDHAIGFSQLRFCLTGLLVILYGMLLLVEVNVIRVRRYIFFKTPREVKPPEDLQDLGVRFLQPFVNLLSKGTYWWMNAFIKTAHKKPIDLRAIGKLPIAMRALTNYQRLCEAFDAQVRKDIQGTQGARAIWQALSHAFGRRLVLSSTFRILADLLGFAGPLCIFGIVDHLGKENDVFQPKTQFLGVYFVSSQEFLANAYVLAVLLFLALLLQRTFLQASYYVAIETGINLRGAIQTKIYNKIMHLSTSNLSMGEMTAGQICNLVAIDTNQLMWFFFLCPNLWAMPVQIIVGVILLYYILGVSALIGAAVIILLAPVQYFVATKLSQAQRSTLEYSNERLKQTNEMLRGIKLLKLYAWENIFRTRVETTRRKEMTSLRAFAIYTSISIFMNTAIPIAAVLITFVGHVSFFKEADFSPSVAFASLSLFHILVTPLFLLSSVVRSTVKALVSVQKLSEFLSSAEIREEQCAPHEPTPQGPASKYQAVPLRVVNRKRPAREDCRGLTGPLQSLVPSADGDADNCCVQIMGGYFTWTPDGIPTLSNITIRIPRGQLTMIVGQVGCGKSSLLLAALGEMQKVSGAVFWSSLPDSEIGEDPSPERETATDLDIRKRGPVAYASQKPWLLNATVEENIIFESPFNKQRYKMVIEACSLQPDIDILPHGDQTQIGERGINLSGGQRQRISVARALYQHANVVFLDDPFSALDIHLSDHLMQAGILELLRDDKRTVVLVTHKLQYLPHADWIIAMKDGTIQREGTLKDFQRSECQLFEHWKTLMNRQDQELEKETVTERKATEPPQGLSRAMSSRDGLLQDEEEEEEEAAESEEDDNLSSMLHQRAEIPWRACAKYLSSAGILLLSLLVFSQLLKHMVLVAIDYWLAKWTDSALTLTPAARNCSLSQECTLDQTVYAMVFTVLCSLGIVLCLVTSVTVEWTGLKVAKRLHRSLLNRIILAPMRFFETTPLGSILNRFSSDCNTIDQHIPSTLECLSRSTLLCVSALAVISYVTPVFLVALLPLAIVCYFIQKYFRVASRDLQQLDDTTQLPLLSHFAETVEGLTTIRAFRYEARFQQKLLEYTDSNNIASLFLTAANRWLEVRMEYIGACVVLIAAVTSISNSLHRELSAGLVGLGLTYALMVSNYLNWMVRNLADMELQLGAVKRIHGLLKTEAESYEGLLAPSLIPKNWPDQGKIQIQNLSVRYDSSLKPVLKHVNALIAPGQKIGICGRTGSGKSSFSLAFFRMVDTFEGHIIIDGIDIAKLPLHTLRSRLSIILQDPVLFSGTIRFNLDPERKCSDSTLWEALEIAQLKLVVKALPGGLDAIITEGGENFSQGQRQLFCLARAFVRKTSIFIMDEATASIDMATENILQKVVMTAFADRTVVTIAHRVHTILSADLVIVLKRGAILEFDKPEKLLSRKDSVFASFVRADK
hSUR1/hKir6.2, sequence (Q14654 whole entry partner): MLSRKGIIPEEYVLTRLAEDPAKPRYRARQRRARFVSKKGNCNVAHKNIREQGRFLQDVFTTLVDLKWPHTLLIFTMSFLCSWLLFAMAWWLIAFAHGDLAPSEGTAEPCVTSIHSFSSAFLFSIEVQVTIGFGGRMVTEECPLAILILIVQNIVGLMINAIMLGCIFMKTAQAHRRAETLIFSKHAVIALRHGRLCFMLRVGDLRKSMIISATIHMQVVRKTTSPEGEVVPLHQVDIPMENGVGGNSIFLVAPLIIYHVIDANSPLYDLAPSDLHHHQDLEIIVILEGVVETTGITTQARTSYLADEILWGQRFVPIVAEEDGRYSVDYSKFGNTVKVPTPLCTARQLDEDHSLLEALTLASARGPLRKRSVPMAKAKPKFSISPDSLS

| Structure (SMILES) | melting point [°C] | hSUR1/hKir6.2 blockade at 0.1 μM [2] [%] | hSUR1/hKir6.2 blockade at 1 μM [2] [%] | hSUR1/hKir6.2 blockade at 10 μM [2] [%] | Remaining shortening of the APD90 under hypoxia in percent [1] [%] | Hypoxic coronary flow compared with the control in percent [3] [%] |
| --- | --- | --- | --- | --- | --- | --- |
| COc1ccc(Cl)cc1C(=O)NCCC1CCN(S(=O)(=O)NC(=S)NC2CC2)CC1 [Example 5, 5-Chloro-2-methoxy-N-(2-(1-(3-cyclopropylthioureidosulfonyl)piperidin-4-yl)ethyl)benzamide] | 144 to 145 |  |  |  |  |  |
| COc1ccc(Cl)cc1C(=O)NCCC1CCN(S(=O)(=O)NC(=S)NC2CCCCC2)CC1 [Example 6, 5-Chloro-2-methoxy-N-(2-(1-(3-cyclohexylthioureidosulfonyl)piperidin-4-yl)ethyl)benzamide] | 146 to 148 |  |  |  |  |  |
| CCCNC(=S)NS(=O)(=O)N1CCC(CCNC(=O)c2cc(Cl)ccc2OC)CC1 [Example 3, 5-Chloro-2-methoxy-N-(2-(1-(3-propylthioureidosulfonyl)piperidin-4-yl)ethyl)benzamide] |  | 5 | 55 | 89 | 67 |  |
| COc1ccc(Cl)cc1C(=O)NCCc1ccc(S(=O)(=O)NC(=O)NC2CCCCC2)cc1 [Comparison (1), glibenclamide, reference compound] |  |  |  |  |  | 35 |
| CCNC(=S)NS(=O)(=O)N1CCC(CCNC(=O)c2cc(Cl)ccc2OC)CC1 [Example 2, 5-Chloro-2-methoxy-N-(2-(1-(3-ethylthioureidosulfonyl)piperidin-4-yl)ethyl)benzamide] |  | <1 | 4 | 67 | 82 |  |
| CNC(=S)NS(=O)(=O)N1CCC(CCNC(=O)c2cc(Cl)ccc2OC)CC1 [Example 1, 5-Chloro-2-methoxy-N-(2-(1-(3-methylthioureidosulfonyl)piperidin-4-yl)ethyl)benzamide] |  | <1 | 2 | 41 | 80 |  |
| COc1ccc(Cl)cc1C(=O)NCCC1CCN(S(=O)(=O)NC(=S)NC(C)C)CC1 [Example 4, 5-Chloro-2-methoxy-N-(2-(1-(3-isopropylthioureidosulfonyl)piperidin-4-yl)ethyl)benzamide] |  | 2 | 53 | 89 | 54 | 61 |

Further lines, with some results ahead:

| melting point [°C] | hSUR1/hKir6.2 blockade at 0.1 μM [2] [%] | hSUR1/hKir6.2 blockade at 1 μM [2] [%] | hSUR1/hKir6.2 blockade at 10 μM [2] [%] | Structure (SMILES) | Remaining shortening of the APD90 under hypoxia in percent [1] [%] | Hypoxic coronary flow compared with the control in percent [3] [%] |
| --- | --- | --- | --- | --- | --- | --- |
|  | 8 | 55 | 102 | CCNC(=O)NS(=O)(=O)N1CCC(CCNC(=O)c2cc(Cl)ccc2OC)CC1 [Example 8, 5-Chloro-2-methoxy-N-(2-(1-(3-ethylureidosulfonyl)piperidin-4-yl)ethyl)benzamide] | 54 |  |
| 138 to 139 |  |  |  | COc1ccc(Cl)cc1C(=O)NCCC1CCN(S(=O)(=O)NC(=O)NC2CC2)CC1 [Example 11, 5-Chloro-2-methoxy-N-(2-(1-(3-cyclopropylureidosulfonyl)piperidin-4-yl)ethyl)benzamide] |  |  |
|  | <1 | 15 | 60 | CNC(=O)NS(=O)(=O)N1CCC(CCNC(=O)c2cc(Cl)ccc2OC)CC1 [Example 7, 5-Chloro-2-methoxy-N-(2-(1-(3-methylureidosulfonyl)piperidin-4-yl)ethyl)benzamide] | 68 |  |
| 140 to 142 |  |  |  | CCCNC(=O)NS(=O)(=O)N1CCC(CCNC(=O)c2cc(Cl)ccc2OC)CC1 [Example 9, 5-Chloro-2-methoxy-N-(2-(1-(3-propylureidosulfonyl)piperidin-4-yl)ethyl)benzamide] |  |  |
